Results from patent publication US8258260B2, “Tumor-associated peptides binding promiscuously to human leukocyte antigen (HLA) class II molecules” (Immatics Biotechnologies GmbH, priority 2005, dated 2012).

Test system: CD4-positive T-cells
Test: In vitro T-cell priming with peptide-pulsed autologous DCs, intracellular IFNγ staining of CD4-positive T-cells
Format: cell-based, human
Details: for CD4+ T-cell IFNγ response to peptide: donors 1, 2 and 3, positive = more than two-fold over negative controls
Procedure: Maturation of DCs: DCs were prepared using blood from healthy donors. Briefly, PBMCs were isolated using standard gradient centrifugation (Lymphocyte Separation Medium, PAA Laboratories GmbH, Pasching, Austria) and plated at a density of 7×10^6 cells/ml in X-Vivo 15 medium. After 2 hours at 37° C., non-adherent cells were removed and adherent monocytes cultured for 6 days in X-Vivo medium with 100 ng/ml GM-CSF and 40 ng/ml IL-4 (AL-ImmunoTools, Friesoythe, Germany). On day 7, immature DCs were activated with 10 ng/ml TNF-α (R&D Systems, Wiesbaden, Germany) and 20 μg/ml poly(IC) (Sigma Aldrich, Steinheim, Germany) for 3 days.
Generation of antigen-specific CD4-positive T-cells: 10^6 PBMCs per well were stimulated with 2×10^5 peptide pulsed (5 μg/ml) autologous DCs. Cells were incubated in 96-well plates (7 wells per donor and per peptide) with T-cell medium: supplemented RPMI 1640 in the presence of 10 ng/ml IL-12 (Promocell, Heidelberg, Germany). After 3 to 4 days of co-incubation at 37° C., fresh medium with 80 U/ml IL-2 (Proleukin, Chiron Corporation, Emeryville, Calif., USA) and 5 ng/ml IL-7 (Promocell) was added. Restimulations were done with autologous PBMCs plus peptide every 6 to 8 days.
Intracellular IFNγ staining: After 3 and 4 rounds of stimulation, PBMCs were thawed, washed twice in X-Vivo 15 medium, resuspended at 10^7 cells/ml in T-cell medium and cultured overnight. On the next day, PBMCs, pulsed with 5 μg/ml peptide, were incubated with effector cells in a ratio of 1:1 for 6 h. Golgi-Stop (Becton Dickinson, Heidelberg, Germany) was added for the final 4 h of incubation.
Cells were analyzed using a Cytofix/Cytoperm Plus kit (Becton Dickinson) and CD4-FITC-(Immunotools), IFNγ-PE- and CD8-PerCP clone SK1-antibodies (Becton Dickinson). For negative controls, cells of seven wells were pooled and incubated either with irrelevant peptide or without peptide, respectively. Stimulation with PMA/Ionomycin was used for positive control. Cells were analyzed on a three-color FACSCalibur (Becton Dickinson).
To generate antigen-specific CD4-positive T-cells and to test the peptides for promiscuous binding, PBMCs of 4 healthy donors with different HLA-DR alleles (FIG. 2), one of them carrying DRB1*1101, were stimulated using peptide-pulsed autologous DCs. […] As a read-out system for the generation of antigen-specific CD4-positive T-cells, IFNγ levels were assessed by flow cytometry. T-cells were analyzed after the third and fourth weekly stimulation by intracellular IFNγ staining plus CD4-FITC and CD8-PerCP staining to determine the percentage of IFNγ-producing cells in specific T-cell subpopulations. […]

Sequence | maximal frequency of IFNγ producing CD4+ T-cells (donor 2) | maximal frequency of IFNγ producing CD4+ T-cells (donor 3) | CD4+ T-cell IFNγ response to peptide
HSKIIIIKKGHAK (listed as Homo sapiens) [SEQ ID NO: 48] | 0.05% | 0.07% | 
SQDDIKGIQKLYGKRS [SEQ ID NO: 1] |  |  | showed CD4^+ T-cells reactive
NPPSMVAAGSVVAAV (listed as Homo sapiens) [SEQ ID NO: 49] |  |  | showed IFNγ responses
